Experimental data: patent US11976083B2, “Inhibitors of peptidylarginine deiminases” (Gilead Sciences, Inc., priority 2020, dated 2024)

Target: T1, human PAD4 (Homo sapiens, UniProt Q9UM07)
T1 construct: human PAD4 (NM_012387), A2-P663, was PCR amplified; His-SUMO (N, cleaved yes); made in house; host or cells: E. coli BL21(DE3)
Assay: In vitro PAD4 BAEE biochemical assay
Details: BAEE substrate 3 mM, 5 nM PAD4, 2 mM calcium chloride; geometric mean of multiple experiments
How it was run: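 Recombinant PAD4 (5 nM final) with 2 mM CaCl2 was preincubated with compound for 30 min at 25 °C in MOPS pH 7.6 buffer with DTT, then reacted with 3 mM BAEE for 2 h at 25 °C. Released ammonia was detected fluorimetrically with o-phthalaldehyde/DTT; IC50 from four-parameter fit, geometric mean of experiments.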

T1 sequence (Q9UM07 2-663): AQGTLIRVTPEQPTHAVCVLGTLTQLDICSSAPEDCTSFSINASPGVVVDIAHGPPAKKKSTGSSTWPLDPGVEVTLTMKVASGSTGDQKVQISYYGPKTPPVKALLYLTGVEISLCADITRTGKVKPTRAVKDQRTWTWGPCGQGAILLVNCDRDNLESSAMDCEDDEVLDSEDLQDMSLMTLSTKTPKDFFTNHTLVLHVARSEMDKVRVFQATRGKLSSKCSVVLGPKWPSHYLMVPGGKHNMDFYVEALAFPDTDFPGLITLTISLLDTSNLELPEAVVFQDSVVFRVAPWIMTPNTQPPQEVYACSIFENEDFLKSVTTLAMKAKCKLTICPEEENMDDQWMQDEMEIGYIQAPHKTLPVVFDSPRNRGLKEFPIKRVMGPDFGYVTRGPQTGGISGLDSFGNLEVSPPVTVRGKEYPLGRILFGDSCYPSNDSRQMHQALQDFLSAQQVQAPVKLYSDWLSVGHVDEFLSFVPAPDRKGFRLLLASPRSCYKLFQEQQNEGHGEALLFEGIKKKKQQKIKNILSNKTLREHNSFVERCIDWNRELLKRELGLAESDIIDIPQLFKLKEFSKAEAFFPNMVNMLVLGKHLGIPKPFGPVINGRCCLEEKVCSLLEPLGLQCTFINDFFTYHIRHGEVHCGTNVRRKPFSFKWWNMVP

## C[C@H]1NC(=O)[C@@H]2C[C@H]2CCCCCn2c(-c3nc4cc(C(=O)N5C[C@H](N)[C@@H]6CC[C@H]5C6)cc(OC(F)F)c4n3C3CC3)cc3ccc1nc32 [Example 759, (2~{R},5~{R},7~{R})-14-[5-[(1~{S},4~{R},5~{R})-4-amino-2-azabicyclo[3.2.1]octane-2-carbonyl]-1-cyclopropyl-7-(difluoromethoxy)benzimidazol-2-yl]-2-methyl-3,13,19-triazatetracyclo[11.5.2.0^ {5,7}.0^{16,20}]icosa-1(19), 14,16(20),17-tetraen-4-one]
  IC50: 17 nM

## C[C@H]1NC(=O)c2ccc(Cl)nc2CCCCCn2c(-c3nc4cc(C(=O)N5C[C@H](N)[C@@H]6CC[C@H]5C6)cc(OC(F)F)c4n3C3CC3)cc3ccc1nc32 [Example 760, (2~{R})-17-[5-[(1~{S},4~{R}, 5~{R})-4-amino-2-azabicyclo [3.2.1]octane-2-carbonyl]-1-cyclopropyl-7-(difluoromethoxy)benzimidazol-2-yl]-8-chloro-2-methyl-3,9,16,22-tetrazatetracyclo [14.5.2.0^{5,10}.0^{19,23}] tricosa-1(22),5(10), 6,8,17,19(23),20-heptaen-4-one]
  IC50: 70 nM

## COc1cc(C(=O)N2C[C@H](N)[C@@H]3CC[C@H]2C3)cc2nc(-c3cc4ccc5nc4n3CC(F)(F)CCCOC3(CC3)C(=O)N[C@@H]5C)n(C)c12 [Example 761, (11~{R})-17-[5-[(1~{S},4~{R}, 5~{R})-4-amino-2-azabicyclo [3.2.1]octane-2-carbonyl]-7-methoxy-1-methyl-benzimidazol-2-yl]-3,3-difluoro-11-methyl-spiro[7-oxa-1,10,19-triazatricyclo[10.5.2.0^ {15,18}]nonadeca-12(19), 13,15(18),16-tetraene-8,1′-cyclopropane]-9-one]
  IC50: 67 nM

## C[C@H]1NC(=O)[C@@H]2C[C@H]2CCCCCn2c(-c3nc4cc(C(=O)N5C[C@H](N)[C@@H]6CC[C@H]5C6)cc(OC(F)F)c4n3C)cc3ccc1nc32 [Example 763, (2~{R},5~{R},7~{R})-14-[5-[(1~{S},4~{R},5~{R})-4-amino-2-azabicyclo[3.2.1]octane-2-carbonyl]-7-(difluoromethoxy)-1-methyl-benzimidazol-2-yl]-2-methyl-3,13,19-triazatetracyclo[11.5.2.0^ {5,7}.0^{16,20}]icosa-1(19),14,16(20),17-tetraen-4-one]
  IC50: 13 nM

## [2H]C1([2H])[C@H](N)[C@@H]2CC[C@@H](C2)N1C(=O)c1cc(F)c2c(c1)nc(-c1cc3ccc4nc3n1CCCCCc1nc(Cl)ccc1C(=O)N[C@@H]4C)n2C1CC1 [Example 764, (2~{R})-17-[5-[(1~{S},4~{R}, 5~{R})-4-amino-3,3-dideuterio-2-azabicyclo[3.2.1]octane-2-carbonyl]-1-cyclopropyl-7-fluoro-benzimidazol-2-yl]-8-chloro-2-methyl-3,9,16,22-tetrazatetracyclo[14.5.2.0^ {5,10).0^{19,23}]tricosa-1(22),5(10),6,8,17,19(23),20-heptaen-4-one]
  IC50: 22 nM

## [2H]C1([2H])[C@H](N)[C@@H]2CC[C@@H](C2)N1C(=O)c1cc(OC)c2c(c1)nc(-c1cc3ccc4nc3n1CC(F)(F)CCC[C@@H]1C[C@H]1C(=O)N[C@@H]4C)n2C [Example 765, (2~{R},5~{R},7~{R})-14-[5-[(1~{S},4~{R},5~{R})-4-amino-3,3-dideuterio-2-azabicyclo[3.2.1]octane-2-carbonyl]-7-methoxy-1-methyl-benzimidazol-2-yl]-11,11-difluoro-2-methyl-3,13,19-triazatetracyclo[11.5.2.0^ {5,7}.0^{16,20}]icosa-1(19),14,16(20),17-tetraen-4-one]
  IC50: 16 nM
